Values joined by “and” are separate entries in the source; they are usually repeats but may differ in a detail not shown here. Identical values can stand only once.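 Test compounds were applied to cells in 96-well plates for 48 hours at 5 doses. GI50 = concentration required for 50% inhibition of growth. The concentration for full growth arrest is given as TGI.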
Each compound was assayed on OVCAR-3 ovarian (assay: NCI anticancer screen, dose series, 48 h).
In the case of `O=C1/C(=C/c2ccc([N+](=O)[O-])cc2)C(=O)N(c2ccccc2)C1c1ccccc1` (stereo not given), the TGI was > 10 µM.
In the case of `NC(N)=NCCC[C@H](N)C(=O)NCC(=O)N[C@@H](CC(=O)O)c1ncc(NC(=O)C(F)(F)F)o1`, the TGI was > 25 µM.
For `Cc1cc(S(=O)(=O)N=C2N(Cc3ccccc3)CCN2Cc2ccccc2)c(S)cc1Cl`, the TGI was > 100 µM.
With `CCCN1CCC(=O)N(CCC(F)(F)C(F)(F)C(F)(F)C(F)(F)C(F)(F)C(F)(F)F)C1=S` the TGI was > 100 µM.
With `CSc1ccc2c(cc1=O)[C@@H](NC(=O)c1ccc(N)cc1)CCc1cc(O)c(O)c(O)c1-2` the GI50 was 17.5 µM and 4.17 µM and the TGI was 40.8 µM and 19.5 µM.
With `O=C(c1ccc(N=Cc2ccccc2O)cc1)c1ccc(N=Cc2ccccc2O)cc1` the TGI was > 100 µM.
`Cn1cc(NC(=O)c2cc(NC(=O)CN=C(N)N)cn2C)cc1C(=O)NCCC(=N)N` was tested, and the TGI was > 100 µM.
With `O=Cc1c(C(=O)O)[nH]c(=O)[nH]c1=O` the TGI was > 100 µM.
For `CCOC(=O)c1cc(C(O)P2(=O)N(CC(C)(C)C)[C@@H]3CCCC[C@H]3N2CC(C)(C)C)cn1C(=O)OC(C)(C)C` (stereo not given in full), the TGI was 25 µM.
`Cc1cccc(N=NC(=O)NNc2cccc(C)c2C)c1C` was tested, and the TGI was > 100 µM.
With `COc1cc(/C=C2/C[C@H]3[C@@H]4CC=C5C[C@@H](O)CC[C@]5(C)[C@H]4CC[C@]3(C)NC2=O)cc(OC)c1OC` the TGI was > 100 µM.
With `Nc1cc2[nH]c(=O)c(=O)[nH]c2cc1N` the TGI was > 100 µM.
`O=C1C=C(C2=CC(=O)C(=O)c3ccccc32)c2ccccc2C1=O` showed a TGI of 20.7 µM.
With `C[N+](C)(C)CC1CCCCCCCCCCC1=O` (stereo not given) the TGI was > 100 µM.
For `CCN(CC)CCNc1nc2ccc([N+](=O)[O-])cc2[n+]([O-])n1`, the TGI was > 100 µM.
Work on `Cc1c(S(=O)(=O)/N=C(\NO)Nc2ccc(Cl)c(Cl)c2)sc2ccc(Cl)cc12` yielded a TGI of 31.1 µM.
In the case of `NN/C(=N\S(=O)(=O)c1cc2ccccc2s1)Nc1ccc(Cl)cc1`, the TGI was 34.5 µM.

What follows are compounds tested on NCI-H226 lung (assay: NCI anticancer screen, dose series, 48 h).
`COc1cc(/C=C2\C(=O)N(c3ccccc3)C(c3ccccc3)S2(=O)=O)cc(OC)c1OC` (stereo not given) was tested, and the TGI was > 100 µM.
`COc1ccc2ccccc2c1/C=C/C(=O)c1ccccc1` gave a TGI of 11.1 µM.
`O=C1CSC(c2cccc(Oc3ccccc3)c2)N1c1ccc(Cl)cc1` (stereo not given) was tested, and the TGI was > 100 µM.
`Nc1nc(N)c2ncn(-c3ccc(Cl)cc3)c2n1` was tested, and the TGI was > 100 µM.
In the case of `Cc1ccc([N+](=O)[O-])cc1S(=O)(=O)Nc1ccc(C2=NNC(c3ccccc3)C2)cc1` (stereo not given), the TGI was > 100 µM.
In the case of `COc1cc(C(=O)N(Cc2cccnc2)C(=S)N(Cc2cccnc2)C(=O)c2cc(OC)c(OC)c(OC)c2)cc(OC)c1OC`, the TGI was > 100 µM.
In the case of `COc1cc(CNCc2cc(OC)c(OC)c(OC)c2)cc(OC)c1OC`, the TGI was > 10 µM.
In the case of `Cc1ccc2c(c1)C(C(=O)N[C@@H]1C(=O)N3[C@@H]1SC(C)(C)[C@@H]3C(=O)O)OCCC2` (stereo not given in full), the TGI was > 100 µM.
In the case of `CCOCc1nc2c(OC)cc(-c3nc4ccc(N5CCN(C)CC5)cc4[nH]3)c(OC)c2[nH]1`, the TGI was 81 µM.
Compound `O=C(N/N=C\c1cccc2c([N+](=O)[O-])cccc12)Nc1ccccc1` has a TGI of 31.2 µM.
In the case of `CC(=O)OCC12C(=O)C[C@@H](C)C3(CC(c4ccoc4)OC3=O)C1CCC(OC(C)=O)C21CO1` (stereo not given in full), the TGI was > 100 µM.
For `CON(C)C(=O)CNC(=O)OCC1c2ccccc2-c2ccccc21`, the TGI was > 100 µM.
In the case of `Cc1cn(C2CC(N(O)Cc3ccccc3)C(CO[Si](C)(C)C(C)(C)C)O2)c(=O)[nH]c1=O` (stereo not given), the TGI was 35.6 µM and 36.9 µM.
In the case of `O=C(NI1OC(=O)c2ccccc21)c1ccc(Cl)cc1`, the TGI was > 100 µM.
For `O=C(O)Cc1cccc2c(=O)c3ccccc3oc12`, the TGI was > 100 µM.
`CC(=O)OC(/C=C/c1ccccc1)=C(OC(C)C)/C1=C(\c2ccccc2)SCCCSC1=O` was tested, and the TGI was > 100 µM.
Work on `COc1cccc(-c2ccc3c4c2O[C@H]2C(=O)CC[C@@]5(O)[C@@H](C3)N(CC3CC3)CC[C@]425)c1` yielded a TGI of 26.8 µM.
With `COc1cc(Cn2c3c(c4cc(O)ccc42)Cc2ccccc2C3=O)cc(OC)c1` the TGI was > 100 µM.
With `O=C1/C(=C/c2ccc([N+](=O)[O-])cc2)C(=O)N(c2ccccc2)C1c1ccccc1` (stereo not given) the TGI was > 10 µM.
With `NC(N)=NCCC[C@H](N)C(=O)NCC(=O)N[C@@H](CC(=O)O)c1ncc(NC(=O)C(F)(F)F)o1` the TGI was > 25 µM.
In the case of `Cc1cc(S(=O)(=O)N=C2N(Cc3ccccc3)CCN2Cc2ccccc2)c(S)cc1Cl`, the TGI was > 100 µM.
For `CCCN1CCC(=O)N(CCC(F)(F)C(F)(F)C(F)(F)C(F)(F)C(F)(F)C(F)(F)F)C1=S`, the TGI was > 100 µM.
In the case of `CSc1ccc2c(cc1=O)[C@@H](NC(=O)c1ccc(N)cc1)CCc1cc(O)c(O)c(O)c1-2`, the GI50 was 16.6 µM and 1.75 µM and the TGI was 40.1 µM and 5.49 µM.
In the case of `O=C(c1ccc(N=Cc2ccccc2O)cc1)c1ccc(N=Cc2ccccc2O)cc1`, the TGI was > 100 µM.
For `Cn1cc(NC(=O)c2cc(NC(=O)CN=C(N)N)cn2C)cc1C(=O)NCCC(=N)N`, the TGI was > 100 µM.
With `O=Cc1c(C(=O)O)[nH]c(=O)[nH]c1=O` the TGI was > 100 µM.
`CCOC(=O)c1cc(C(O)P2(=O)N(CC(C)(C)C)[C@@H]3CCCC[C@H]3N2CC(C)(C)C)cn1C(=O)OC(C)(C)C` (stereo not given in full) was tested, and the TGI was 39.4 µM.
In the case of `Cc1cccc(N=NC(=O)NNc2cccc(C)c2C)c1C`, the TGI was > 100 µM.
`COc1cc(/C=C2/C[C@H]3[C@@H]4CC=C5C[C@@H](O)CC[C@]5(C)[C@H]4CC[C@]3(C)NC2=O)cc(OC)c1OC` was tested, and the TGI was > 58.5 µM.
In the case of `Nc1cc2[nH]c(=O)c(=O)[nH]c2cc1N`, the TGI was > 100 µM.
With `O=C1C=C(C2=CC(=O)C(=O)c3ccccc32)c2ccccc2C1=O` the TGI was > 100 µM.
For `C[N+](C)(C)CC1CCCCCCCCCCC1=O` (stereo not given), the TGI was > 100 µM.
In the case of `CCN(CC)CCNc1nc2ccc([N+](=O)[O-])cc2[n+]([O-])n1`, the TGI was > 100 µM.
In the case of `Cc1c(S(=O)(=O)/N=C(\NO)Nc2ccc(Cl)c(Cl)c2)sc2ccc(Cl)cc12`, the TGI was 43.8 µM.
`NN/C(=N\S(=O)(=O)c1cc2ccccc2s1)Nc1ccc(Cl)cc1` was tested, and the TGI was 36.5 µM.

These compounds were tested on A549 NSCLC (assay: NCI anticancer screen, dose series, 48 h).
In the case of `COc1cc(/C=C2\C(=O)N(c3ccccc3)C(c3ccccc3)S2(=O)=O)cc(OC)c1OC` (stereo not given), the TGI was > 100 µM.
In the case of `COc1ccc2ccccc2c1/C=C/C(=O)c1ccccc1`, the TGI was 10.4 µM.
With `O=C1CSC(c2cccc(Oc3ccccc3)c2)N1c1ccc(Cl)cc1` (stereo not given) the TGI was > 100 µM.
With `Nc1nc(N)c2ncn(-c3ccc(Cl)cc3)c2n1` the TGI was > 100 µM.
In the case of `Cc1ccc([N+](=O)[O-])cc1S(=O)(=O)Nc1ccc(C2=NNC(c3ccccc3)C2)cc1` (stereo not given), the TGI was > 100 µM.
For `COc1cc(C(=O)N(Cc2cccnc2)C(=S)N(Cc2cccnc2)C(=O)c2cc(OC)c(OC)c(OC)c2)cc(OC)c1OC`, the TGI was > 100 µM.
With `COc1cc(CNCc2cc(OC)c(OC)c(OC)c2)cc(OC)c1OC` the TGI was > 10 µM.
With `Cc1ccc2c(c1)C(C(=O)N[C@@H]1C(=O)N3[C@@H]1SC(C)(C)[C@@H]3C(=O)O)OCCC2` (stereo not given in full) the TGI was > 100 µM.
`CCOCc1nc2c(OC)cc(-c3nc4ccc(N5CCN(C)CC5)cc4[nH]3)c(OC)c2[nH]1` was tested, and the TGI was > 100 µM.
With `O=C(N/N=C\c1cccc2c([N+](=O)[O-])cccc12)Nc1ccccc1` the TGI was 28.3 µM.
With `CC(=O)OCC12C(=O)C[C@@H](C)C3(CC(c4ccoc4)OC3=O)C1CCC(OC(C)=O)C21CO1` (stereo not given in full) the TGI was > 100 µM.
For `CON(C)C(=O)CNC(=O)OCC1c2ccccc2-c2ccccc21`, the TGI was > 100 µM.
`Cc1cn(C2CC(N(O)Cc3ccccc3)C(CO[Si](C)(C)C(C)(C)C)O2)c(=O)[nH]c1=O` (stereo not given) was tested, and the GI50 was 35.8 µM and 16.7 µM and the TGI was > 100 µM and 31.5 µM.
In the case of `O=C(NI1OC(=O)c2ccccc21)c1ccc(Cl)cc1`, the TGI was > 100 µM.
`O=C(O)Cc1cccc2c(=O)c3ccccc3oc12` was tested, and the TGI was > 100 µM.
With `CC(=O)OC(/C=C/c1ccccc1)=C(OC(C)C)/C1=C(\c2ccccc2)SCCCSC1=O` the TGI was > 100 µM.
In the case of `COc1cccc(-c2ccc3c4c2O[C@H]2C(=O)CC[C@@]5(O)[C@@H](C3)N(CC3CC3)CC[C@]425)c1`, the TGI was 35.5 µM.
With `COc1cc(Cn2c3c(c4cc(O)ccc42)Cc2ccccc2C3=O)cc(OC)c1` the TGI was > 100 µM.
`O=C1/C(=C/c2ccc([N+](=O)[O-])cc2)C(=O)N(c2ccccc2)C1c1ccccc1` (stereo not given) was tested, and the TGI was > 10 µM.
In the case of `NC(N)=NCCC[C@H](N)C(=O)NCC(=O)N[C@@H](CC(=O)O)c1ncc(NC(=O)C(F)(F)F)o1`, the TGI was > 25 µM.
In the case of `Cc1cc(S(=O)(=O)N=C2N(Cc3ccccc3)CCN2Cc2ccccc2)c(S)cc1Cl`, the TGI was > 100 µM.
With `CCCN1CCC(=O)N(CCC(F)(F)C(F)(F)C(F)(F)C(F)(F)C(F)(F)C(F)(F)F)C1=S` the TGI was > 100 µM.
For `CSc1ccc2c(cc1=O)[C@@H](NC(=O)c1ccc(N)cc1)CCc1cc(O)c(O)c(O)c1-2`, the TGI was 49.7 µM and 64.9 µM.
`O=C(c1ccc(N=Cc2ccccc2O)cc1)c1ccc(N=Cc2ccccc2O)cc1` was tested, and the TGI was > 100 µM.
With `Cn1cc(NC(=O)c2cc(NC(=O)CN=C(N)N)cn2C)cc1C(=O)NCCC(=N)N` the TGI was > 100 µM.
With `O=Cc1c(C(=O)O)[nH]c(=O)[nH]c1=O` the TGI was > 100 µM.
`CCOC(=O)c1cc(C(O)P2(=O)N(CC(C)(C)C)[C@@H]3CCCC[C@H]3N2CC(C)(C)C)cn1C(=O)OC(C)(C)C` (stereo not given in full) gave a TGI of 38.8 µM.
For `Cc1cccc(N=NC(=O)NNc2cccc(C)c2C)c1C`, the TGI was > 100 µM.
For `COc1cc(/C=C2/C[C@H]3[C@@H]4CC=C5C[C@@H](O)CC[C@]5(C)[C@H]4CC[C@]3(C)NC2=O)cc(OC)c1OC`, the TGI was > 100 µM.
With `Nc1cc2[nH]c(=O)c(=O)[nH]c2cc1N` the TGI was > 100 µM.
With `O=C1C=C(C2=CC(=O)C(=O)c3ccccc32)c2ccccc2C1=O` the TGI was > 100 µM.
`C[N+](C)(C)CC1CCCCCCCCCCC1=O` (stereo not given) was tested, and the TGI was > 100 µM.
In the case of `CCN(CC)CCNc1nc2ccc([N+](=O)[O-])cc2[n+]([O-])n1`, the TGI was 61 µM.
`Cc1c(S(=O)(=O)/N=C(\NO)Nc2ccc(Cl)c(Cl)c2)sc2ccc(Cl)cc12` was tested, and the TGI was 68.8 µM.
For `NN/C(=N\S(=O)(=O)c1cc2ccccc2s1)Nc1ccc(Cl)cc1`, the TGI was 39.8 µM.

From PubChem BioAssay (NCI)
